How the values were obtained:
Experiment in all cases: NCI SRB growth inhibition (single dose 10 µM / five-dose)
Format in all cases: cell-based, human
786–0 = conditions: Homo sapiens; for inhibition at 10 µM: 786–0 (Renal cancer), read-out: GI%; for GI50: 786–0, Renal cancer, five-dose
Outline: (§1)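 SRB protein stain of fixed cells; compounds tested at one dose (10 µM) or five serial dilutions (10-fold or ½ log), diluted from DMSO stock. Cells plated 24 h before dosing, with a time-zero plate fixed in TCA. Percent growth derived from Tz, control and test absorbances; TGI taken where Ti = Tz.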

A498 = conditions: Homo sapiens; for inhibition at 10 µM: A498 (Renal cancer), read-out: GI%; for GI50: A498, Renal cancer, five-dose
Outline: as §1

A549/ATCC = conditions: Homo sapiens; for inhibition at 10 µM: A549/ATCC (Non-small cell lung cancer), read-out: GI%; for GI50: A549/ATCC, Non-small cell lung cancer, five-dose
Outline: as §1

ACHN = conditions: Homo sapiens; for inhibition at 10 µM: ACHN (Renal cancer), read-out: GI%; for GI50: ACHN, Renal cancer, five-dose
Outline: as §1

BT-549 = conditions: Homo sapiens; for inhibition at 10 µM: BT-549 (Breast cancer), read-out: GI%; for GI50: BT-549, Breast cancer, five-dose
Outline: as §1

CAKI-1 = conditions: Homo sapiens; for inhibition at 10 µM: CAKI-1 (Renal cancer), read-out: GI%; for GI50: CAKI-1, Renal cancer, five-dose
Outline: as §1

CCRF-CEM = conditions: Homo sapiens; for inhibition at 10 µM: CCRF-CEM (Leukemia), read-out: GI%; for GI50: CCRF-CEM, Leukemia, five-dose
Outline: as §1

COLO 205 = conditions: Homo sapiens; for inhibition at 10 µM: COLO 205 (Colon cancer), read-out: GI%; for GI50: COLO 205, Colon cancer, five-dose
Outline: as §1

HCT-116 = conditions: Homo sapiens, HCT-116; for inhibition at 10 µM: read-out: GI%
Outline: as §1

HCT-15 = conditions: Homo sapiens; for inhibition at 10 µM: HCT-15 (Colon cancer), read-out: GI%; for GI50: HCT-15, Colon cancer, five-dose
Outline: as §1

HS 578 T = conditions: Homo sapiens; for inhibition at 10 µM: HS 578 T (Breast cancer), read-out: GI%; for GI50: HS 578 T, Breast cancer, five-dose
Outline: as §1

IGROV1 = conditions: Homo sapiens, IGROV-1; for inhibition at 10 µM: IGROV1 (Ovarian cancer), read-out: GI%; for GI50: IGROV1, Ovarian cancer, five-dose
Outline: as §1

K-562 = conditions: Homo sapiens, K562; for inhibition at 10 µM: K-562 (Leukemia), read-out: GI%; for GI50: K-562, Leukemia, five-dose
Outline: as §1

KM12 = conditions: Homo sapiens; for inhibition at 10 µM: KM12 (Colon cancer), read-out: GI%; for GI50: KM12, Colon cancer, five-dose
Outline: as §1

MALME-3 M = conditions: Homo sapiens; for inhibition at 10 µM: MALME-3 M (Melanoma), read-out: GI%; for GI50: MALME-3 M, Melanoma, five-dose
Outline: as §1

MDA-MB-231/ATCC = conditions: Homo sapiens; for inhibition at 10 µM: MDA-MB-231/ATCC (Breast cancer), read-out: GI%; for GI50: MDA-MB-231/ATCC, Breast cancer, five-dose
Outline: as §1

MDA-MB-435 = conditions: Homo sapiens; for inhibition at 10 µM: MDA-MB-435 (Melanoma), read-out: GI%; for GI50: MDA-MB-435, Melanoma, five-dose
Outline: as §1

NCI/ADR-RES = conditions: Homo sapiens; for inhibition at 10 µM: NCI/ADR-RES (Ovarian cancer), read-out: GI%; for GI50: NCI/ADR-RES, Ovarian cancer, five-dose
Outline: as §1

OVCAR-4 = conditions: Homo sapiens; for inhibition at 10 µM: OVCAR-4 (Ovarian cancer), read-out: GI%; for GI50: OVCAR-4, Ovarian cancer, five-dose
Outline: as §1

OVCAR-8 = conditions: Homo sapiens; for inhibition at 10 µM: OVCAR-8 (Ovarian cancer), read-out: GI%; for GI50: OVCAR-8, Ovarian cancer, five-dose
Outline: as §1

RXF 393 = conditions: Homo sapiens; for inhibition at 10 µM: RXF 393 (Renal cancer), read-out: GI%; for GI50: RXF 393, Renal cancer, five-dose
Outline: as §1

SK-MEL-28 = conditions: Homo sapiens; for inhibition at 10 µM: SK-MEL-28 (Melanoma), read-out: GI%; for GI50: SK-MEL-28, Melanoma, five-dose
Outline: as §1

SK-MEL-2 = conditions: Homo sapiens; for inhibition at 10 µM: SK-MEL-2 (Melanoma), read-out: GI%; for GI50: SK-MEL-2, Melanoma, five-dose
Outline: as §1

SK-OV-3 = conditions: Homo sapiens; for inhibition at 10 µM: SK-OV-3 (Ovarian cancer), read-out: GI%; for GI50: SK-OV-3, Ovarian cancer, five-dose
Outline: as §1

SNB-75 = conditions: Homo sapiens; for inhibition at 10 µM: SNB-75 (CNS cancer), read-out: GI%; for GI50: SNB-75, CNS cancer, five-dose
Outline: as §1

UACC-257 = conditions: Homo sapiens; for inhibition at 10 µM: UACC-257 (Melanoma), read-out: GI%; for GI50: UACC-257, Melanoma, five-dose
Outline: as §1

SMILES: COc1ccc(-c2nc3cc(C(=O)NN=Cc4cccc(OC)c4)ccc3[nH]2)cc1 [8j, N'-(3-Methoxybenzylidene)-2-(4-methoxyphenyl)-1H-benzo[d]imidazole-5-carbohydrazide]
- inhibition at 10 µM (786–0): > 100%
- GI50 (786–0): 3.84 µM
- inhibition at 10 µM (A498): < 5%
- GI50 (A498): 21.5 µM
- inhibition at 10 µM (A549/ATCC): > 100%
- GI50 (A549/ATCC): 3.05 µM
- inhibition at 10 µM (ACHN): > 100%
- GI50 (ACHN): 4.25 µM
- inhibition at 10 µM (BT-549): 29.8%
- GI50 (BT-549): 5.47 µM
- inhibition at 10 µM (CAKI-1): 85.3%
- GI50 (CAKI-1): 2.81 µM
- inhibition at 10 µM (CCRF-CEM): 35%
- GI50 (CCRF-CEM): 7.91 µM
- inhibition at 10 µM (COLO 205): > 100%
- GI50 (COLO 205): 4.3 µM
- GI50 (HCT-116): 2.99 µM
- inhibition at 10 µM (HCT-116): > 100%
- inhibition at 10 µM (HCT-15): 79.2%
- GI50 (HCT-15): 3.92 µM
- inhibition at 10 µM (HS 578 T): > 100%
- GI50 (HS 578 T): 1.9 µM
- inhibition at 10 µM (IGROV1): > 100%
- GI50 (IGROV1): 3.49 µM
- inhibition at 10 µM (K-562): 88.1%
- GI50 (K-562): 6.92 µM
- inhibition at 10 µM (KM12): > 100%
- GI50 (KM12): 4.34 µM
- inhibition at 10 µM (MALME-3 M): > 100%
- GI50 (MALME-3 M): 2.45 µM
- inhibition at 10 µM (MDA-MB-231/ATCC): > 100%
- GI50 (MDA-MB-231/ATCC): 2.43 µM
- inhibition at 10 µM (MDA-MB-435): 76.5%
- GI50 (MDA-MB-435): 6.25 µM
- inhibition at 10 µM (NCI/ADR-RES): 32%
- GI50 (NCI/ADR-RES): 6.35 µM
- inhibition at 10 µM (OVCAR-4): > 100%
- GI50 (OVCAR-4): 2.01 µM
- inhibition at 10 µM (OVCAR-8): > 100%
- GI50 (OVCAR-8): 1.92 µM
- inhibition at 10 µM (RXF 393): > 100%
- GI50 (RXF 393): 2.26 µM
- inhibition at 10 µM (SK-MEL-28): 64.2%
- GI50 (SK-MEL-28): 3.93 µM
- inhibition at 10 µM (SK-MEL-2): 81%
- GI50 (SK-MEL-2): 10.6 µM
- inhibition at 10 µM (SK-OV-3): 68.3%
- GI50 (SK-OV-3): 5.39 µM
- inhibition at 10 µM (SNB-75): > 100%
- GI50 (SNB-75): 1.78 µM
- inhibition at 10 µM (UACC-257): 57.7%
- GI50 (UACC-257): 11 µM

SMILES: COc1cccc(C=NNC(=O)c2ccc3[nH]c(-c4ccc(Cl)cc4)nc3c2)c1 [8q, 2-(4-Chlorophenyl)-N'-(3-methoxybenzylidene)-1H-benzo[d]imidazole-5-carbohydrazide]
- inhibition at 10 µM (786–0): > 100%
- GI50 (786–0): 1.85 µM
- inhibition at 10 µM (A498): > 100%
- GI50 (A498): 15.3 µM
- inhibition at 10 µM (A549/ATCC): > 100%
- GI50 (A549/ATCC): 3.22 µM
- inhibition at 10 µM (ACHN): > 100%
- GI50 (ACHN): 4.21 µM
- inhibition at 10 µM (BT-549): 6.97%
- GI50 (BT-549): 10.1 µM
- inhibition at 10 µM (CAKI-1): > 100%
- GI50 (CAKI-1): 3.84 µM
- inhibition at 10 µM (CCRF-CEM): 47%
- GI50 (CCRF-CEM): 1.95 µM
- inhibition at 10 µM (COLO 205): > 100%
- GI50 (COLO 205): 4.02 µM
- GI50 (HCT-116): 3.06 µM
- inhibition at 10 µM (HCT-116): > 100%
- inhibition at 10 µM (HCT-15): 63%
- GI50 (HCT-15): 5.52 µM
- inhibition at 10 µM (HS 578 T): > 100%
- GI50 (HS 578 T): 2.71 µM
- inhibition at 10 µM (IGROV1): > 100%
- GI50 (IGROV1): 3.01 µM
- inhibition at 10 µM (K-562): 98.1%
- GI50 (K-562): 3.14 µM
- inhibition at 10 µM (KM12): > 100%
- GI50 (KM12): 4.42 µM
- inhibition at 10 µM (MALME-3 M): > 100%
- GI50 (MALME-3 M): 1.54 µM
- inhibition at 10 µM (MDA-MB-231/ATCC): > 100%
- GI50 (MDA-MB-231/ATCC): 1.89 µM
- inhibition at 10 µM (MDA-MB-435): 98.9%
- GI50 (MDA-MB-435): 3.9 µM
- inhibition at 10 µM (NCI/ADR-RES): 23%
- GI50 (NCI/ADR-RES): 94.8 µM
- inhibition at 10 µM (OVCAR-4): > 100%
- GI50 (OVCAR-4): 3.07 µM
- inhibition at 10 µM (OVCAR-8): > 100%
- GI50 (OVCAR-8): 2.69 µM
- inhibition at 10 µM (RXF 393): > 100%
- GI50 (RXF 393): 2.06 µM
- inhibition at 10 µM (SK-MEL-28): > 100%
- GI50 (SK-MEL-28): 2.15 µM
- inhibition at 10 µM (SK-MEL-2): > 100%
- GI50 (SK-MEL-2): 3.07 µM
- inhibition at 10 µM (SK-OV-3): > 100%
- GI50 (SK-OV-3): 2.02 µM
- inhibition at 10 µM (SNB-75): > 100%
- GI50 (SNB-75): 5.69 µM
- inhibition at 10 µM (UACC-257): > 100%
- GI50 (UACC-257): 4.8 µM

Reference: paper PMC10893631, “Receptor-based pharmacophore modeling, molecular docking, synthesis and biological evaluation of novel VEGFR-2, FGFR-1, and BRAF multi-kinase inhibitors” (BMC Chemistry, 2024)
